In patent US20240327787A1, “CULTURE MEDIUM, COATING MATRIX AND METHOD FOR EXPANDING MIDBRAIN DOPAMINERGIC PROGENITOR CELLS” (NUWACELL BIOTECHNOLOGIES CO., LTD., priority 2022, published 2024):
Counter-ions that a name gives are not always drawn.

Tested on: imDAPs
Experiment: imDAP maturation, cell morphology and adhesion (bright-field)
Format: cell-based, human
Details: 10 μM Y27632; coating 1 μg/cm^2 for each; day 7
Method: were produced according to the method described in CN201910169525.0, and expanded as described in Example 10. The expanded […] were seeded on VTN-coated (1 μg/cm^2) plates at a density of 5×10^5 cells/cm^2 (Day 0), and cultured in the maturation medium ([…]) supplemented with 1 μM IWR1. MM-P used in Example 11 contained the following components: NeurobasalTM medium, 1% (v/v) Glutamax, 0.5 mM Db-cAMP sodium salt, 200 μM ascorbic acid, 20 ng/ml BDNF, 20 ng/ml GDNF, 1 ng/ml TGF-β3, 10 μM DAPT, hPLT (0.5%, 1%, 2%). MM-H used in Example 11 contained the following components: NeurobasalTM medium, 1% (v/v) Glutamax, 0.5 mM Db-cAMP sodium salt, 200 μM ascorbic acid, 20 ng/ml BDNF, 20 ng/ml GDNF, 1 ng/ml TGF-β3, […], HhPLT (0.5%, 1%, 2%). MM-B used in Example 11 contained the following components: Neurobasal, 1% (v/v) Glutamax, 0.5 mM Db-cAMP sodium salt, 200 μM ascorbic acid, 20 ng/ml BDNF, 20 ng/ml GDNF, 1 ng/ml TGF-β 3, 10 μM DAPT, 2% (v/v) B27 (50×) (as control). The above HhPLT was produced from hPLT as follows. The hPLT was centrifuged at 3000 g for 30 min at 4° C. to obtain the supernatant, which was heated to 56° C. for 30 min. […] Cells were collected and counted by Vi-cell cytometer. The cells were analyzed by RT-qPCR for EN1, LMX1A, FOXA2, NURR1, SOX6 and TH gene expression. […]

C[C@@H](N)[C@H]1CC[C@H](C(=O)Nc2ccncc2)CC1 [Y27632, (R)-(+)-trans-4-(1-aminoethyl)-N-(4-pyridyl) cyclohexanecarboxamide dihydrochloride]
cell adhesion and growth in maturation media supplemented with Y27632 (FIG. 8A): could promote cell adhesion at a certain degree
